Laboratory results taken from the supplement of paper PMC10307832.

Experiments:
Experiment in all cases: relative viability (nuclei count vs DMSO), 5 days (fraction); higher = more cells survive
[1] = compound: C1=CC2=NC=CN=C2C=C1/C=C/3\C(=O)NC(=O)S3 + CC(=O)c1c(C)c2cnc(Nc3ccc(N4CCNCC4)cn3)nc2n(C2CCCC2)c1=O [Palbociclib] (partner 0.5 µM)
Method in brief: (§1)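 Lung cancer cell lines were seeded in 1536-well plates and dosed by pin tool the next day, with either a single drug or a fixed anchor-drug dose combined with five library-drug doses (not always all listed) spaced in √10 steps. Five days later, one step fixed the cells and stained their nuclei (final 0.05% Triton X-100, 1% formaldehyde, 1 ug/ml Hoechst), and nuclei were counted on 4× images. Relative viability is the nuclei count in treated wells divided by the count in vehicle wells, and each value is the median of duplicate plates.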

BGJ398 + Phenformin = compound: CCN1CCN(c2ccc(Nc3cc(N(C)C(=O)Nc4c(Cl)c(OC)cc(OC)c4Cl)ncn3)cc2)CC1 [BGJ398] + N=C(N)NC(=N)NCCc1ccccc1 [Phenformin] (partner 250 µM)
Method in brief: as §1

BGJ398 + Decitabine = compound: CCN1CCN(c2ccc(Nc3cc(N(C)C(=O)Nc4c(Cl)c(OC)cc(OC)c4Cl)ncn3)cc2)CC1 [BGJ398] + Nc1ncn([C@H]2C[C@H](O)[C@@H](CO)O2)c(=O)n1 [Decitabine] (partner 2 µM)
Method in brief: as §1

BGJ398 + Vorinostat = compound: CCN1CCN(c2ccc(Nc3cc(N(C)C(=O)Nc4c(Cl)c(OC)cc(OC)c4Cl)ncn3)cc2)CC1 [BGJ398] + O=C(CCCCCCC(=O)Nc1ccccc1)NO [Vorinostat] (partner 1 µM)
Method in brief: as §1

## UMC-11
[1]; first compound 0.02 µM
  relative viability: 0.341
[1]; first compound 0.06325 µM
  relative viability: 0.328
[1]; first compound 0.2 µM
  relative viability: 0.33
[1]; first compound 0.6325 µM
  relative viability: 0.328
[1]; first compound 2 µM
  relative viability: 0.414
BGJ398 + Phenformin; first compound 0.01 µM
  relative viability: 0.325
BGJ398 + Phenformin; first compound 0.03162 µM
  relative viability: 0.344
BGJ398 + Phenformin; first compound 0.1 µM
  relative viability: 0.391
BGJ398 + Phenformin; first compound 0.3162 µM
  relative viability: 0.341
BGJ398 + Phenformin; first compound 1 µM
  relative viability: 0.341
BGJ398 + Decitabine; first compound 0.01 µM
  relative viability: 0.504
BGJ398 + Decitabine; first compound 0.03162 µM
  relative viability: 0.571
BGJ398 + Decitabine; first compound 0.1 µM
  relative viability: 0.637
BGJ398 + Decitabine; first compound 0.3162 µM
  relative viability: 0.652
BGJ398 + Decitabine; first compound 1 µM
  relative viability: 0.365
BGJ398 + Vorinostat; first compound 0.01 µM
  relative viability: 0.363
BGJ398 + Vorinostat; first compound 0.03162 µM
  relative viability: 0.407
BGJ398 + Vorinostat; first compound 0.1 µM
  relative viability: 0.376
BGJ398 + Vorinostat; first compound 0.3162 µM
  relative viability: 0.376
BGJ398 + Vorinostat; first compound 1 µM
  relative viability: 0.382
